According to patent publication US9422297B2, “Tricyclic compounds having cytostatic and/or cytotoxic activity and methods of use thereof” (Duquesne University of the Holy Ghost, priority 2007, dated 2016):

Columns and labels:
60 tumor cell line panel = experiment: NCI 60 preclinical in vitro tumor screening panel; conditions: read-out: GI50 across tumor panel
UACC-257 = experiment: NCI In-Vitro Testing, Melanoma; format: cell-based
HL-60(TB) = experiment: NCI In-Vitro Testing, Leukemia; format: cell-based
NCI-H322M = experiment: NCI In-Vitro Testing, Non-Small Cell Lung Cancer; format: cell-based
NCI-H522 = experiment: NCI In-Vitro Testing, Non-Small Cell Lung Cancer; format: cell-based
MCF7 = experiment: NCI In-Vitro Testing, Breast Cancer; format: cell-based
SF-295 = experiment: NCI In-Vitro Testing, CNS Cancer; format: cell-based
SNB-75 = experiment: NCI In-Vitro Testing, CNS Cancer; format: cell-based
SF-258 = experiment: NCI In-Vitro Testing, CNS Cancer; format: cell-based
B16-F10 tumors = experiment: B16-F10 tumor model in vivo; conditions: athymic mice, 25 mg/kg three times weekly, vs methotrexate and sham
SN12C = experiment: NCI In-Vitro Testing, Renal Cancer; format: cell-based
SK-OV-3 = experiment: NCI In-Vitro Testing, Ovarian Cancer; format: cell-based
OVCAR-4 = experiment: NCI In-Vitro Testing, Ovarian Cancer; format: cell-based
IGROV1 = experiment: NCI In-Vitro Testing, Ovarian Cancer; format: cell-based
SW-620 = experiment: NCI In-Vitro Testing, Colon Cancer; format: cell-based
HS 576T = experiment: NCI In-Vitro Testing, Breast Cancer; format: cell-based
A431 cytotoxicity assay = format: cell-based; conditions: human, A431 cells; Table 3
EGFR kinase = EGFR kinase (Homo sapiens (Human), UniProt P00533); experiment: EGFR kinase inhibition; format: biochemical; conditions: Table 3; read-out: EGFR kinase
EGFR kinase, sequence (P00533 25-1210): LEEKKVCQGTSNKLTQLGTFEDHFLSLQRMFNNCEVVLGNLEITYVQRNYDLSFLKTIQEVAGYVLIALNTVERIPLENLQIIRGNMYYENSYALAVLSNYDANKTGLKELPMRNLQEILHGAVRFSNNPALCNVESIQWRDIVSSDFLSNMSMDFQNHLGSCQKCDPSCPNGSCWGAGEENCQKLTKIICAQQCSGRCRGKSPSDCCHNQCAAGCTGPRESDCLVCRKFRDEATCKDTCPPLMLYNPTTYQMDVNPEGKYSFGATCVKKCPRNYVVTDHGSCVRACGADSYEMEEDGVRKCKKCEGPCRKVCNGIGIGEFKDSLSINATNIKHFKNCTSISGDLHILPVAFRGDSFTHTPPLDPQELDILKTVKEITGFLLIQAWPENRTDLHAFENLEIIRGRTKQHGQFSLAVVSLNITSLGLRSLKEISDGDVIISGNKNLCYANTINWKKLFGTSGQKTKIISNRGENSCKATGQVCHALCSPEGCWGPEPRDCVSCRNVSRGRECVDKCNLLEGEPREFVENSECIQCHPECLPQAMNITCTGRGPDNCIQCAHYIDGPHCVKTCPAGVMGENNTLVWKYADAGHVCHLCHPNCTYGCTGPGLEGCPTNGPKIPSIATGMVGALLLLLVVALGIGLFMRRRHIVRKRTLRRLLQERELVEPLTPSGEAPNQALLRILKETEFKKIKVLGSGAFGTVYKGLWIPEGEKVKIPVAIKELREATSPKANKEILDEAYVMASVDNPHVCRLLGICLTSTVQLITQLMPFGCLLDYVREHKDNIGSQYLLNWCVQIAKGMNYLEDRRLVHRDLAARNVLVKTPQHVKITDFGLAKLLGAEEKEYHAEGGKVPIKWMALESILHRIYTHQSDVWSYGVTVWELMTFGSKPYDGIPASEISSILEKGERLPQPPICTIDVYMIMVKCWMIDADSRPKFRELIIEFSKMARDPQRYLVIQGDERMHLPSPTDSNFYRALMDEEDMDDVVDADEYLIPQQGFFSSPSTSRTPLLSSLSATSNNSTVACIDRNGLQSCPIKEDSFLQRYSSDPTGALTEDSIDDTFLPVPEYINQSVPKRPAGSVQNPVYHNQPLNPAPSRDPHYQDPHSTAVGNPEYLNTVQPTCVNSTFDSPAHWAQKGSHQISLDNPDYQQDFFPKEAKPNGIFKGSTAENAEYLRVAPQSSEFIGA

OVCAR-3 = experiment: NCI In-Vitro Testing, Ovarian Cancer; format: cell-based
HOP-52 = experiment: NCI In-Vitro Testing, Non-Small Cell Lung Cancer; format: cell-based

Compound: Nc1nc2c(c(Nc3ccc(Cl)cc3)n1)-c1ccccc1C2 [AAG145-136]
- GI50 (60 tumor cell line panel): 0.0312 to 1 µM
- GI50 (UACC-257): 6.45E−8 Molar
- LC50 (UACC-257): >1.00E−4 Molar
- TGI (UACC-257): >1.00E−4 Molar
- Percent Growth (UACC-257; Log10 Concentration −4.0 Molar): 6%
- Percent Growth (UACC-257; Log10 Concentration −5.0 Molar): 21%
- Percent Growth (UACC-257; Log10 Concentration −6.0 Molar): 33%
- Percent Growth (UACC-257; Log10 Concentration −7.0 Molar): 46%
- Percent Growth (UACC-257; Log10 Concentration −8.0 Molar): 102%
- GI50 (HL-60(TB)): 1.50E−7 Molar
- LC50 (HL-60(TB)): >1.00E−4 Molar
- TGI (HL-60(TB)): >1.00E−4 Molar
- Percent Growth (HL-60(TB); Log10 Concentration −4.0 Molar): 12%
- Percent Growth (HL-60(TB); Log10 Concentration −5.0 Molar): 13%
- Percent Growth (HL-60(TB); Log10 Concentration −6.0 Molar): 23%
- Percent Growth (HL-60(TB); Log10 Concentration −7.0 Molar): 56%
- Percent Growth (HL-60(TB); Log10 Concentration −8.0 Molar): 87%
- GI50 (NCI-H322M): 1.35E−6 Molar
- LC50 (NCI-H322M): >1.00E−4 Molar
- TGI (NCI-H322M): >1.00E−4 Molar
- Percent Growth (NCI-H322M; Log10 Concentration −4.0 Molar): 39%
- Percent Growth (NCI-H322M; Log10 Concentration −5.0 Molar): 32%
- Percent Growth (NCI-H322M; Log10 Concentration −6.0 Molar): 53%
- Percent Growth (NCI-H322M; Log10 Concentration −7.0 Molar): 101%
- Percent Growth (NCI-H322M; Log10 Concentration −8.0 Molar): 103%
- GI50 (NCI-H522): 6.22E−7 Molar
- LC50 (NCI-H522): >1.00E−4 Molar
- TGI (NCI-H522): 3.88E−5 Molar
- Percent Growth (NCI-H522; Log10 Concentration −4.0 Molar): −10%
- Percent Growth (NCI-H522; Log10 Concentration −5.0 Molar): 14%
- Percent Growth (NCI-H522; Log10 Concentration −6.0 Molar): 40%
- Percent Growth (NCI-H522; Log10 Concentration −7.0 Molar): 89%
- Percent Growth (NCI-H522; Log10 Concentration −8.0 Molar): 96%
- GI50 (MCF7): 7.34E−8 Molar
- LC50 (MCF7): >1.00E−4 Molar
- TGI (MCF7): 1.41E−5 Molar
- Percent Growth (MCF7; Log10 Concentration −4.0 Molar): −26%
- Percent Growth (MCF7; Log10 Concentration −5.0 Molar): 5%
- Percent Growth (MCF7; Log10 Concentration −6.0 Molar): 17%
- Percent Growth (MCF7; Log10 Concentration −7.0 Molar): 45%
- Percent Growth (MCF7; Log10 Concentration −8.0 Molar): 63%
- GI50 (SF-295): 5.47E−7 Molar
- LC50 (SF-295): >1.00E−4 Molar
- TGI (SF-295): >1.00E−4 Molar
- Percent Growth (SF-295; Log10 Concentration −4.0 Molar): 17%
- Percent Growth (SF-295; Log10 Concentration −5.0 Molar): 20%
- Percent Growth (SF-295; Log10 Concentration −6.0 Molar): 34%
- Percent Growth (SF-295; Log10 Concentration −7.0 Molar): 95%
- Percent Growth (SF-295; Log10 Concentration −8.0 Molar): 105%
- GI50 (SNB-75): 5.03E−6 Molar
- LC50 (SNB-75): >1.00E−4 Molar
- TGI (SNB-75): 6.44E−5 Molar
- Percent Growth (SNB-75; Log10 Concentration −4.0 Molar): −10%
- Percent Growth (SNB-75; Log10 Concentration −5.0 Molar): 41%
- Percent Growth (SNB-75; Log10 Concentration −6.0 Molar): 71%
- Percent Growth (SNB-75; Log10 Concentration −7.0 Molar): 92%
- Percent Growth (SNB-75; Log10 Concentration −8.0 Molar): 95%
- GI50 (SF-258): 8.62E−8 Molar
- LC50 (SF-258): >1.00E−4 Molar
- TGI (SF-258): >1.00E−4 Molar
- Percent Growth (SF-258; Log10 Concentration −4.0 Molar): 21%
- Percent Growth (SF-258; Log10 Concentration −5.0 Molar): 19%
- Percent Growth (SF-258; Log10 Concentration −6.0 Molar): 27%
- Percent Growth (SF-258; Log10 Concentration −7.0 Molar): 45%
- Percent Growth (SF-258; Log10 Concentration −8.0 Molar): 104%
- antitumor activity (tumor volume, tumor growth rate) (B16-F10 tumors): potent antitumor activity
- GI50 (SN12C): 1.89E−7 Molar
- LC50 (SN12C): >1.00E−4 Molar
- TGI (SN12C): >1.00E−4 Molar
- Percent Growth (SN12C; Log10 Concentration −4.0 Molar): 9%
- Percent Growth (SN12C; Log10 Concentration −5.0 Molar): 25%
- Percent Growth (SN12C; Log10 Concentration −6.0 Molar): 37%
- Percent Growth (SN12C; Log10 Concentration −7.0 Molar): 55%
- Percent Growth (SN12C; Log10 Concentration −8.0 Molar): 102%
- GI50 (SK-OV-3): 2.09E−6 Molar
- LC50 (SK-OV-3): >1.00E−4 Molar
- TGI (SK-OV-3): >1.00E−4 Molar
- Percent Growth (SK-OV-3; Log10 Concentration −4.0 Molar): 16%
- Percent Growth (SK-OV-3; Log10 Concentration −5.0 Molar): 36%
- Percent Growth (SK-OV-3; Log10 Concentration −6.0 Molar): 57%
- Percent Growth (SK-OV-3; Log10 Concentration −7.0 Molar): 97%
- Percent Growth (SK-OV-3; Log10 Concentration −8.0 Molar): 106%
- GI50 (OVCAR-4): 4.16E−6 Molar
- LC50 (OVCAR-4): >1.00E−4 Molar
- TGI (OVCAR-4): >1.00E−4 Molar
- Percent Growth (OVCAR-4; Log10 Concentration −4.0 Molar): 19%
- Percent Growth (OVCAR-4; Log10 Concentration −5.0 Molar): 30%
- Percent Growth (OVCAR-4; Log10 Concentration −6.0 Molar): 82%
- Percent Growth (OVCAR-4; Log10 Concentration −7.0 Molar): 84%
- Percent Growth (OVCAR-4; Log10 Concentration −8.0 Molar): 83%
- GI50 (IGROV1): 2.87E−7 Molar
- LC50 (IGROV1): >1.00E−4 Molar
- TGI (IGROV1): >1.00E−4 Molar
- Percent Growth (IGROV1; Log10 Concentration −4.0 Molar): 11%
- Percent Growth (IGROV1; Log10 Concentration −5.0 Molar): 6%
- Percent Growth (IGROV1; Log10 Concentration −6.0 Molar): 24%
- Percent Growth (IGROV1; Log10 Concentration −7.0 Molar): 72%
- Percent Growth (IGROV1; Log10 Concentration −8.0 Molar): 93%
- GI50 (SW-620): 6.30E−8 Molar
- LC50 (SW-620): >1.00E−4 Molar
- TGI (SW-620): >1.00E−4 Molar
- Percent Growth (SW-620; Log10 Concentration −4.0 Molar): 10%
- Percent Growth (SW-620; Log10 Concentration −5.0 Molar): 10%
- Percent Growth (SW-620; Log10 Concentration −6.0 Molar): 15%
- Percent Growth (SW-620; Log10 Concentration −7.0 Molar): 39%
- Percent Growth (SW-620; Log10 Concentration −8.0 Molar): 92%
- GI50 (HS 576T): 2.22E−6 Molar
- LC50 (HS 576T): >1.00E−4 Molar
- TGI (HS 576T): 2.94E−5 Molar
- Percent Growth (HS 576T; Log10 Concentration −4.0 Molar): −13%
- Percent Growth (HS 576T; Log10 Concentration −5.0 Molar): 11%
- Percent Growth (HS 576T; Log10 Concentration −6.0 Molar): 71%
- Percent Growth (HS 576T; Log10 Concentration −7.0 Molar): 97%
- Percent Growth (HS 576T; Log10 Concentration −8.0 Molar): 104%
- IC50 (A431 cytotoxicity assay): 9.7 µM
- IC50 (EGFR kinase): 26 µM
- GI50 (OVCAR-3): 2.48E−6 Molar
- LC50 (OVCAR-3): >1.00E−4 Molar
- TGI (OVCAR-3): >1.00E−4 Molar
- Percent Growth (OVCAR-3; Log10 Concentration −4.0 Molar): 14%
- Percent Growth (OVCAR-3; Log10 Concentration −5.0 Molar): 22%
- Percent Growth (OVCAR-3; Log10 Concentration −6.0 Molar): 66%
- Percent Growth (OVCAR-3; Log10 Concentration −7.0 Molar): 86%
- Percent Growth (OVCAR-3; Log10 Concentration −8.0 Molar): 91%
- GI50 (HOP-52): 6.54E−7 Molar
- LC50 (HOP-52): >1.00E−4 Molar
- TGI (HOP-52): >1.00E−4 Molar
- Percent Growth (HOP-52; Log10 Concentration −4.0 Molar): 32%
- Percent Growth (HOP-52; Log10 Concentration −5.0 Molar): 25%
- Percent Growth (HOP-52; Log10 Concentration −6.0 Molar): 40%
- Percent Growth (HOP-52; Log10 Concentration −7.0 Molar): 94%
- Percent Growth (HOP-52; Log10 Concentration −8.0 Molar): 97%
